Experimental data reported in patent publication US20240201204A1, “Biomarker and Druggable Target of Neurodegeneration” (University Hospitals Cleveland Medical Center, priority 2020, published 2024).
Like-named read-outs stand apart in the source and are kept apart here.

Columns and labels:
p300/CBP = details: literature (Shirakawa et al., 2016); cited from earlier work
[1] = Diflunisal protein binding by rapid equilibrium dialysis; type: in vitro ADME, mouse; details: diluted 1:20 (final) with PBS, 37° C.
Protocol: (§1) Diflunisal protein binding: Protein binding of diflunisal in mouse plasma or brain homogenate was determined by rapid equilibrium dialysis using RED chambers (Thermo Scientific, Waltham, MA). On the day of the RED experiment, frozen mouse plasma and 4× homogenized brain was thawed in a water bath at 37° C. Then it was equilibrated for 45 minutes at 37° C. in an atmosphere of 5% CO2. The pH of PBS was confirmed within 7.4±0.1. The pH of plasma and brain was measured and adjusted to 7.4±0.1 using concentrated acid or base. Plasma and brain diluted at 1:20 (final) with PBS and used for all subsequent steps. An aliquot of plasma or brain was spiked with compound to a compound concentration of 5 μM and vortex mixed. […] Donor, dialysate, and plasma or brain stability samples were analyzed by using a matrix matching approach whereby each sample was mixed in a 1:1 ratio with the opposite medium (blank matrix or PBS). […] Diflunisal levels in both chambers were measured by LC-MS/MS in comparison to a standard curve prepared in 1:1 matrix: PBS as described above. For each matrix, stability was assessed by maintaining individual aliquots of compound-spiked matrix at 37° C. and 5% CO2 for 0 and 6 hours. […] Stability of diflunisal in plasma and brain was 99% over 6 hours as assessed by LC-MS/MS. Fraction unbound (fu) was determined based on the following equations: […]

Alzheimer's disease = assay: Pharmacoepidemiologic cohort analysis (MarketScan Medicare Supplemental database), incidence of AD; type: in vivo, human
Excerpt: (§2) Because ac-tau has been generally reported in the brains of subjects with AD, we evaluated the relationship between salsalate or diflunisal use and incidence of clinically-diagnosed TBI or AD by analyzing 7.23 million U.S. commercially-insured individuals (MarketScan Medicare Supplemental database). We conducted two cohort analyses to evaluate the predicted association, based on individual level of longitudinal patient data and pharmacoepidemiologic methods, as previously established (Cheng et al., 2018). Thus, our two cohorts included: (1) salsalate vs. a matched aspirin population and (2) diflunisal vs. a matched aspirin population (Table 2). For each comparison, we estimated the un-stratified Kaplan-Meier curves and conducted propensity score (PS) stratified (n strata=10) log-rank tests and a Cox regression model after adjusting age, race, sex, and disease comorbidities (including diabetes, hypertension, and coronary artery disease) using a propensity score-matching method (Methods).
Study cohorts. The IBM® MarketScan® Medicare Supplemental Database is one of the first in the U.S. to profile the healthcare experience of retirees with Medicare supplemental insurance paid by employers. The MarketScan Medicare Supplemental Database provides detailed cost, use and outcomes data for healthcare services performed in both inpatient and outpatient settings. For most of the population, the medical claims are linked to outpatient prescription drug claims and person-level enrollment data through the use of unique patient or enrollee identifiers. […] This feature makes the database a robust tool for pharmacoeconomic and outcomes research and helps provide insight into the drug use and spending patterns of older Americans. In this study, the pharmacoepidemiology study utilized the MarketScan Medicare Claims database from 2012 to 2017. The dataset included individual-level diagnosis codes, procedure codes and pharmacy claim data for 7.23 million patients. Pharmacy prescriptions of salsalate, diflunisal, and aspirin were identified by using RxNorm and National Drug Code (NDC).
Outcome measurement. For a subject, a drug episode is defined as from drug initiation to drug discontinuation. Specifically, drug initiation is defined as the first day of drug supply (i.e. 1st prescription date). Drug discontinuation is defined as the last day of drug supply (i.e. last prescription date+days of supply) and without drug supply for the next 60 days. In another word, gaps of less than 60-day of drug supply were allowed within a drug episode. The drug cohort included the first drug episode for each subject. For the final cohorts, demographic variables including age, race, sex and geographical location were collected. […]

[2] = 500 mg diflunisal twice daily for 11 days; cited from earlier work
[3] = Diflunisal stability in plasma and brain homogenate; type: in vitro ADME; details: mouse plasma and brain homogenate, 37° C., 5% CO2, over 6 hours
Protocol: as §1

clinically-diagnosed TBI = assay: Pharmacoepidemiologic cohort analysis (MarketScan Medicare Supplemental database), incidence of TBI; type: in vivo, human; details: vs. PS-matched aspirin cohort, Cox regression model, 6 years of follow-up
Excerpt: as §2
Study cohorts. The IBM® MarketScan® Medicare Supplemental Database is one of the first in the U.S. to profile the healthcare experience of retirees with Medicare supplemental insurance paid by employers. The MarketScan Medicare Supplemental Database provides detailed cost, use and outcomes data for healthcare services performed in both inpatient and outpatient settings. […]

[4] = in vivo
Protocol: Diflunisal was administered PO and animals were euthanized at the indicated times post-dose. After peripheral blood collection, animals were perfused with 1×PBS to remove blood in the brain vasculature. Total plasma and brain levels of diflunisal were evaluated by LC-MS/MS and then converted to free drug levels after measurement of binding in mouse plasma and brain.
Diflunisal pharmacokinetics: Diflunisal levels in mouse plasma and brain were monitored by LC-MS/MS using an AB Sciex (Framingham, MA) 4000 QTRAP® mass spectrometer coupled to a Shimadzu (Columbia, MD) Prominence LC. Diflunisal was detected with the mass spectrometer in negative MRM (multiple reaction monitoring) mode by following the precursor to fragment ion transitions 248.9 to 204.9 (quantifier ion) and 248.9 to 184.9 (qualifier ion). An Agilent C18 XDB column (5 micron, 50×4.6 mm) was used for chromatography for PK studies with the following conditions: Buffer A: dH20+0.1% formic acid, Buffer B: acetonitrile+0.1% formic acid, 0-1.0 min 5% B, 1.0-1.5 min gradient to 100% B, 1.5-3.0 min 100% B, 3.0-3.2 min gradient to 5% B, 3.2-4.5 5% B. Tolbutamide (transition 269.1 to 169.9) from Sigma (St. Louis, MO) was used as an internal standard (IS). Pharmacokinetic studies were performed by injecting 8 week old C57BL/6J male mice with diflunisal formulated in 10% DMSO, 20% Kolliphor EL, 70% saline. 60 or 180 minutes post-dose, animals were anesthetized with ketamine (100 mg/kg) and xylazine (10 mg/kg) via intraperitoneal (IP) injection. Blood was collected using the anticoagulant ACD, and then brains were harvested after transcardial perfusion with 1×PBS. Tissues were weighed before snap freezing and blood spun at 9600×g to collect plasma which was stored frozen along with brain tissue at −80° C. until analysis. […] The concentration of drug in each time-point sample was quantified using Analyst software (Sciex). […] The limit of quantitation (LOQ) was defined as the lowest concentration at which back calculation yielded a concentration within 20% of theoretical.

O=C(O)c1cc(-c2ccc(F)cc2F)ccc1O [diflunisal]
inhibition of p300/CBP (p300/CBP): demonstrated to inhibit p300/CBP
fraction unbound at 6 h, 5 μM ([1]; pH 7.4, mouse brain homogenate, read-out: fraction unbound in brain tissue (fubrain)): 0.05 ± 0.001
fraction unbound at 6 h, 5 μM ([1]; pH 7.4, mouse plasma, read-out: fraction unbound in plasma (fuplasma)): 0.014 ± 0.002
incidence of AD, subgroup analysis (Alzheimer's disease; excluding patients with type 2 diabetes, hypertension, or coronary artery disease, vs. aspirin): associated with decreased incidence of AD
hazard ratio [HR], AD (Alzheimer's disease; vs. PS-matched aspirin cohort, Cox regression model, 6 years of follow-up): 0.17
mean peak plasma levels in humans [2]: 190 µg/mL
stability in plasma and brain [3]: 99%
hazard ratio [HR], clinically-diagnosed TBI (clinically-diagnosed TBI): 0.61
penetration into mouse brain [4]: modest penetration of diflunisal into mouse brain
free drug plasma to brain ratio ([4]; male, C57BL/6J, mouse): 55:1
total diflunisal plasma to brain ratio ([4]; male, C57BL/6J, mouse): about 200:1
